From patent publication US8574563B2 (Bristol-Myers Squibb Company, priority 2006, dated 2013)

system: HCV 1b-377-neo replicon cells; assay: HCV replicon assay, HCV 1b-377-neo replicon cells (1b FRET); format: cell-based, Hepatitis C virus genotype 1b; conditions: Hepatitis C virus, HCV 1b-377-neo replicon cells; HCV 1b genotype; read-out: EC50 range against HCV 1b (Table 2, Range)
How it was run: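 FRET-based replicon assay in HCV 1b-377-neo cells, including a comparison line carrying the NS5A Y2065H mutation that confers resistance to a reference compound.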

| SMILES | EC50 |
| --- | --- |
| COC(=O)N[C@@H](C)C(=O)N1CCC[C@H]1c1ncc(-c2ccc(-c3ccc(-c4cnc([C@@H]5CCCN5C(=O)[C@H](Cc5ccccn5)NC(=O)OC)[nH]4)cc3)cc2)[nH]1 [cj-66, methyl ((1S)-2-((2S)-2-(5-(4′-(2-((2S)-1-(N-(methoxycarbonyl)-L-alanyl)-2-pyrrolidinyl)-1H-imidazol-5-yl)-4-biphenylyl)-1H-imidazol-2-yl)-1-pyrrolidinyl)-2-oxo-1-(2-pyridinylmethyl)ethyl)carbamate] | 0.001 to 0.999 nM |
| COC(=O)N[C@@H](C)C(=O)N1CCC[C@H]1c1nc(C(=O)OCc2ccccc2)c(-c2ccc(-c3ccc(-c4cnc([C@@H]5CCCN5C(=O)[C@@H](C)NC(=O)OC)[nH]4)cc3)cc2)[nH]1 [Example J24, benzyl 2-((2S)-l-(N-(methoxycarbonyl)-L-alanyl)-2-pyrrolidinyl)-5-(4-(2-((2S)-l-(N-(methoxycarbonyl)-L-alanyl)-2-pyrrolidinyl)-1H-imidazol-5-yl)-4-biphenylyl)-1H-imidazole-4-carboxylate] | 0.001 to 0.999 nM |
| COC(=O)N[C@H](C(=O)N1CCC[C@H]1c1nc(-c2ccc(-c3ccc(-c4cnc([C@@H]5CCCN5C(=O)[C@H](NC(=O)OC)C5CCOCC5)[nH]4)cc3)cc2)c[nH]1)C(C)C [Example F57, methyl ((1S)-1-(((2S)-2-(4-(4′-(2-((2S)-1-((2R)-2-((methoxycarbonyl)amino)-2-(tetrahydro-2H-pyran-4-yl)acetyl)-2-pyrrolidinyl)-1H-imidazol-5-yl)-4-biphenylyl)-1H-imidazol-2-yl)-1-pyrrolidinyl)carbonyl)-2-methylpropyl)carbamate] | 0.001 to 0.999 nM |
| O=C([C@@H](c1ccccc1)N1CCOCC1)N1CCC[C@H]1c1ncc(-c2ccc(-c3ccc(-c4cnc([C@@H]5CCCN5C(=O)[C@@H](c5ccccc5)N5CCOCC5)[nH]4)cc3)cc2)[nH]1 [Example 18, 4,4′-(4,4′-biphenyldiylbis(1H-imidazole-5,2-diyl(2S)-2,1-pyrrolidinediyl((1R)-2-oxo-1-phenyl-2,1-ethanediyl)))dimorpholine] | 0.001 to 0.999 nM |
| CC(C)[C@H](O)C(=O)N1CCC[C@H]1c1ncc(-c2ccc(-c3ccc(-c4cnc([C@@H]5CCCN5C(=O)[C@@H](O)C(C)C)[nH]4)cc3)cc2)[nH]1 [LS4, (2S,2′S)-1,1′-(4,4′-biphenyldiylbis(1H-imidazole-5,2-diyl(2S)-2,1-pyrrolidinediyl))bis(3-methyl-1-oxo-2-butanol)] | 1 to 99 nM |
| CCN(CC)[C@@H](C(=O)N1C[C@@H](F)C[C@H]1c1ncc(-c2ccc(-c3ccc(-c4cnc([C@@H]5C[C@H](F)CN5C(=O)[C@@H](NC(=O)OC)C(C)C)[nH]4)cc3)cc2)[nH]1)c1ccccc1 [JG-15, methyl ((1S)-1-(((2S,4S)-2-(5-(4′-(2-((2S,4S)-1-((2R)-2-(diethylamino)-2-phenylacetyl)-4-fluoro-2-pyrrolidinyl)-1H-imidazol-5-yl)-4-biphenylyl)-1H-imidazol-2-yl)-4-fluoro-1-pyrrolidinyl)carbonyl)-2-methylpropyl)carbamate] | 0.001 to 0.999 nM |
| COC(=O)N[C@@H](C(=O)N1CCC[C@H]1c1ncc(-c2ccc(-c3ccc(-c4cnc([C@@H]5CCCN5C(=O)C(c5cccc(Cl)c5)N(C)C)[nH]4)cc3)cc2)[nH]1)c1ccccc1 (stereo partly drawn) [Example 84-57, methyl ((1R)-2-((2S)-2-(5-(4′-(2-((2S)-1-((3-chlorophenyl)(dimethylamino)acetyl)-2-pyrrolidinyl)-1H-imidazol-5-yl)-4-biphenylyl)-1H-imidazol-2-yl)-1-pyrrolidinyl)-2-oxo-1-phenylethyl)carbamate] | 0.001 to 0.999 nM |
| CCOC(=O)N[C@H](C)C(=O)N1CCC[C@H]1c1ncc(-c2ccc(-c3ccc(-c4cnc([C@@H]5CCCN5C(=O)[C@@H](c5ccccc5)N(CC)CC)[nH]4)cc3)cc2)[nH]1 [Example M30, ethyl ((1R)-2-((2S)-2-(5-(4′-(2-((2S)-1-((2R)-2-(diethylamino)-2-phenylacetyl)-2-pyrrolidinyl)-1H-imidazol-5-yl)-4-biphenylyl)-1H-imidazol-2-yl)-1-pyrrolidinyl)-1-methyl-2-oxoethyl)carbamate] | 1 to 99 nM |
| COC(=O)NCC(=O)N1[C@@H]2C[C@@H]2C[C@H]1c1nc(-c2ccc(-c3ccc(-c4c[nH]c([C@@H]5C[C@H]6C[C@H]6N5C(=O)CNC(=O)OC)n4)cc3)cc2)c[nH]1 [Example M134, methyl (2-((1R,3S,5R)-3-(4-(4′-(2-((1R,3S,5R)-2-(((methoxy-carbonyl)amino)acetyl)-2-azabicyclo[3.1.0]hex-3-yl)-1H-imidazol-4-yl)-4-biphenylyl)-1H-imidazol-2-yl)-2-azabicyclo[3.1.0]hex-2-yl)-2-oxoethyl)carbamate] | 1 to 99 nM |
| CN(C)[C@@H](C(=O)N1CCC[C@H]1c1ncc(-c2ccc(-c3ccc(-c4cnc([C@@H]5CCCN5C(=O)c5ccccc5F)[nH]4)cc3)cc2)[nH]1)c1ccccc1 [Example 94-38, (1R)-2-((2S)-2-(5-(4′-(2-((2S)-1-(2-fluorobenzoyl)-2-pyrrolidinyl)-1H-imidazol-5-yl)-4-biphenylyl)-1H-imidazol-2-yl)-1-pyrrolidinyl)-N,N-dimethyl-2-oxo-1-phenylethanamine] | 0.001 to 0.999 nM |
| CCC(C)NCC(=O)N1CCC[C@H]1c1ncc(-c2ccc(-c3ccc(-c4cnc([C@@H]5CCCN5C(=O)[C@@H](NC(=O)OC)C(C)C)[nH]4)cc3)cc2)[nH]1 (stereo partly drawn) [LS24, methyl ((1S)-1-(((2S)-2-(5-(4′-(2-((2S)-1-(N-sec-butylglycyl)-2-pyrrolidinyl)-1H-imidazol-5-yl)-4-biphenylyl)-1H-imidazol-2-yl)-1-pyrrolidinyl)carbonyl)-2-methylpropyl)carbamate] | 0.001 to 0.999 nM |
| COC(=O)N[C@@H](Cc1ccccc1)C(=O)N1CCC[C@H]1c1ncc(-c2ccc(-c3ccc(-c4cnc([C@@H]5CCCN5C(=O)[C@H](Cc5ccccc5)NC(=O)OC)[nH]4)cc3)cc2)[nH]1 [cj-148, methyl ((1S)-1-benzyl-2-((2S)-2-(5-(4′-(2-((2S)-1-((2S)-2-((methoxycarbonyl)amino)-3-phenylpropanoyl)-2-pyrrolidinyl)-1H-imidazol-5-yl)-4-biphenylyl)-1H-imidazol-2-yl)-1-pyrrolidinyl)-2-oxoethyl)carbamate] | 1 to 99 nM |
| COC(=O)N[C@@H](CC(=O)N1CCC[C@H]1c1ncc(-c2ccc(-c3ccc(-c4cnc([C@@H]5CCCN5C(=O)C[C@@H](Cc5ccccc5)NC(=O)OC)[nH]4)cc3)cc2)[nH]1)Cc1ccccc1 [cj-143, dimethyl (4,4′-biphenyldiylbis(1H-imidazole-5,2-diyl(2S)-2,1-pyrrolidinediyl((2R)-4-oxo-1-phenyl-4,2-butanediyl)))biscarbamate] | 1000 to 10000 nM |
| O=C(c1cscn1)N1CCC[C@H]1c1ncc(-c2ccc(-c3ccc(-c4cnc([C@@H]5CCCN5C(=O)[C@@H](c5ccccc5)N5CCCCC5)[nH]4)cc3)cc2)[nH]1 [Example 107-11, 1-((1R)-2-oxo-1-phenyl-2-((2S)-2-(5-(4′-(2-((2S)-1-(1,3-thiazo1-4-ylcarbonyl)-2-pyrrolidinyl)-1H-imidazol-5-yl)-4-biphenylyl)-1H-imidazol-2-yl)-1-pyrrolidinyl)ethyl)piperidine] | 0.001 to 0.999 nM |
| CCN(CC)[C@@H](C(=O)N1CCC[C@H]1c1nc(-c2ccc(-c3ccc(-c4[nH]c([C@@H]5CCCN5C(=O)[C@@H](c5ccccc5)N(CC)CC)nc4C)cc3)cc2)c(C)[nH]1)c1ccccc1 [Example E5h, (1R,1′R)-2,2′-(4,4′-biphenyldiylbis((4-methyl-1H-imidazole-5,2-diyl)(2S)-2,1-pyrrolidinediyl))bis(N,N-diethyl-2-oxo-1-phenylethanamine)] | 0.001 to 0.999 nM |
| COC(=O)N[C@H](C(=O)N1CC(F)(F)C[C@H]1c1ncc(-c2ccc(-c3ccc(-c4cnc([C@@H]5CC(F)(F)CN5C(=O)[C@@H](NC(=O)OC)C(C)C)[nH]4)cc3)cc2)[nH]1)C(C)C [OL-7, methyl ((1S)-1-(((2S)-2-(4-(4′-(2-((2S)-4,4-difluoro-1-((2S)-2-((methoxycarbonyl)amino)-3-methylbutanoyl)-2-pyrrolidinyl)-1H-imidazol-4-yl)-4-biphenylyl)-1H-imidazol-2-yl)-4,4-difluoro-1-pyrrolidinyl)carbonyl)-2-methylpropyl)carbamate] | 0.001 to 0.999 nM |
| COC(=O)N[C@@H](Cc1cn(Cc2ccccc2)cn1)C(=O)N1CCC[C@H]1c1ncc(-c2ccc(-c3ccc(-c4cnc([C@@H]5CCCN5C(=O)[C@@H](NC(=O)OC)[C@@H](C)OC)[nH]4)cc3)cc2)[nH]1 [cj-75, methyl ((1S)-1-((1-benzyl-1H-imidazol-4-yl)methyl)-2-((2S)-2-(5-(4′-(2-((2S)-1-((2S,3R)-3-methoxy-2-((methoxycarbonyl)amino)butanoyl)-2-pyrrolidinyl)-1H-imidazol-5-yl)-4-biphenylyl)-1H-irnidazol-2-yl)-1-pyrrolidinyl)-2-oxoethyl)carbamate] | 0.001 to 0.999 nM |
| COC(=O)N[C@@H](C)C(=O)N1CCC[C@H]1c1ncc(-c2ccc(-c3ccc(-c4cnc([C@@H]5CCCN5C(=O)[C@@H]5CCN5C(=O)OC)[nH]4)cc3)cc2)[nH]1 [cj-49, methyl (2S)-2-(((2S)-2-(5-(4′-(2-((2S)-1-(N-(methoxycarbonyl)-L-alanyl)-2-pyrrolidinyl)-1H-imidazol-5-yl)-4-biphenylyl)-1H-imidazol-2-yl)-1-pyrrolidinyl)carbonyl)-1-azetidinecarboxylate] | 1 to 99 nM |
| O=C(C(c1ccccc1)N1C2CCC1CC2)N1CCC[C@H]1c1ncc(-c2ccc(-c3ccc(-c4cnc([C@@H]5CCCN5C(=O)C(c5ccccc5)N5C6CCC5CC6)[nH]4)cc3)cc2)[nH]1 (stereo partly drawn) [Example M2, 7,7′-(4,4′-biphenyldiylbis(1H-imidazole-5,2-diyl(2S)-2,1-pyrrolidinediyl(2-oxo-1-phenyl-2,1-ethanediyl)))bis(7-azabicyclo[2.2.1]heptane)] | 1 to 99 nM |
| CCN(CC)[C@@H](C(=O)N1CCC[C@H]1c1ncc(-c2ccc(-c3ccc(-c4cnc([C@@H]5CCCN5C(=O)[C@H]5CC[C@@H](N(CC)CC)CC5)[nH]4)cc3)cc2)[nH]1)c1ccccc1 [cj-73, cis-4-(((2S)-2-(5-(4′-(2-((2S)-1-((2R)-2-(diethylamino)-2-phenylacetyl)-2-pyrrolidinyl)-1H-imidazol-5-yl)-4-biphenylyl)-1H-imidazol-2-yl)-1-pyrrolidinyl)carbonyl)-N,N-diethylcyclohexanamine] | 0.001 to 0.999 nM |
